Key:
[1] = test system: giant foxtail; assay: Test A pre-/postemergence greenhouse test; format: in vivo, Setaria faberi; conditions: for Foxtail, Giant plant response rating: 0 to 100 scale; for Plant response rating, Foxtail, Giant: 0 to 100 scale where 0 is no effect and 100 is complete control
Procedure, shortened: (§1)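 Visual injury ratings, made relative to untreated controls roughly ten days after treatment, cover both preemergence and postemergence application. Compounds in a surfactant-containing non-phytotoxic solvent were sprayed onto the soil surface after sowing and, simultaneously, onto young plants at the one- to two-leaf stage.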

[2] = test system: morningglory; assay: Test A pre-/postemergence greenhouse test; format: in vivo, Ipomoea spp.; conditions: for Morningglory plant response rating: 0 to 100 scale; for Plant response rating, Morningglory: 0 to 100 scale where 0 is no effect and 100 is complete control
Procedure, shortened: as §1

[3] = test system: redroot pigweed; assay: Test A pre-/postemergence greenhouse test; format: in vivo, Amaranthus retroflexus; conditions: for Pigweed plant response rating: 0 to 100 scale; for Plant response rating, Pigweed: 0 to 100 scale where 0 is no effect and 100 is complete control
Procedure, shortened: as §1

[4] = test system: wheat; assay: Test A pre-/postemergence greenhouse test; format: in vivo, Triticum aestivum; conditions: for Wheat plant response rating: 0 to 100 scale; for Plant response rating, Wheat: 0 to 100 scale where 0 is no effect and 100 is complete control
Procedure, shortened: as §1

[5] = test system: blackgrass; assay: Test C pre-/postemergence test; format: in vivo, Alopecurus myosuroides; conditions: for Plant response rating, Blackgrass: 31 g ai/ha, scale 0 to 100 (0 no effect, 100 complete control); for Plant response rating (0 to 100), Blackgrass: 250 g ai/ha
Procedure, shortened: (§2)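 Compounds in a non-phytotoxic solvent with surfactant applied preemergence to seeded pots and, at the same time, postemergence to plants 2–18 cm tall (1- to 4-leaf stage). Paddy tests: pots flooded to 3 cm, compound applied into the water, depth held throughout.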

[6] = test system: downy brome; assay: Test C pre-/postemergence test; format: in vivo, Bromus tectorum; conditions: for Plant response rating, Bromegrass, Downy: 31 g ai/ha, scale 0 to 100 (0 no effect, 100 complete control); for Plant response rating (0 to 100), Bromegrass, Downy: 250 g ai/ha
Procedure, shortened: as §2

[7] = test system: wheat; assay: Test C pre-/postemergence test; format: in vivo, Triticum aestivum; conditions: Preemergence; for Wheat plant response rating: 62 g ai/ha, scale 0 to 100; for Plant response rating, Wheat: 31 g ai/ha, scale 0 to 100 (0 no effect, 100 complete control)
Procedure, shortened: as §2

[8] = test system: wild oat; assay: Test C pre-/postemergence test; format: in vivo, Avena fatua; conditions: Preemergence; for Oat, Wild plant response rating: 62 g ai/ha, scale 0 to 100; for Plant response rating, Oat, Wild: 31 g ai/ha, scale 0 to 100 (0 no effect, 100 complete control)
Procedure, shortened: as §2

[9] = test system: catchweed bedstraw; assay: Test C pre-/postemergence test; format: in vivo, Galium aparine; conditions: Preemergence; for Galium plant response rating: 62 g ai/ha, scale 0 to 100; for Plant response rating, Galium: 31 g ai/ha, scale 0 to 100 (0 no effect, 100 complete control); for Plant response rating (0 to 100), Galium: 250 g ai/ha
Procedure, shortened: as §2

[10] = test system: Surinam grass; assay: Test C pre-/postemergence test; format: in vivo, Brachiaria decumbens; conditions: Preemergence; for Surinam Grass plant response rating: 62 g ai/ha, scale 0 to 100; for Plant response rating, Surinam Grass: 31 g ai/ha, scale 0 to 100 (0 no effect, 100 complete control)
Procedure, shortened: as §2

[11] = test system: cocklebur; assay: Test C pre-/postemergence test; format: in vivo, Xanthium strumarium; conditions: for Plant response rating, Cocklebur: 31 g ai/ha, scale 0 to 100 (0 no effect, 100 complete control); for Plant response rating (0 to 100), Cocklebur: 250 g ai/ha
Procedure, shortened: as §2

[12] = test system: woolly cupgrass; assay: Test C pre-/postemergence test; format: in vivo, Eriochloa villosa; conditions: Preemergence; for Cupgrass, Woolly plant response rating: 62 g ai/ha, scale 0 to 100; for Plant response rating, Cupgrass, Woolly: 31 g ai/ha, scale 0 to 100 (0 no effect, 100 complete control)
Procedure, shortened: as §2

[13] = test system: giant foxtail; assay: Test C pre-/postemergence test; format: in vivo, Setaria faberii; conditions: Preemergence; for Foxtail, Giant plant response rating: 62 g ai/ha, scale 0 to 100; for Plant response rating, Foxtail, Giant: 31 g ai/ha, scale 0 to 100 (0 no effect, 100 complete control); for Plant response rating (0 to 100), Foxtail, Giant: 250 g ai/ha
Procedure, shortened: as §2

[14] = test system: kochia; assay: Test C pre-/postemergence test; format: in vivo, Kochia scoparia; conditions: Preemergence; for Kochia plant response rating: 62 g ai/ha, scale 0 to 100; for Plant response rating, Kochia: 31 g ai/ha, scale 0 to 100 (0 no effect, 100 complete control)
Procedure, shortened: as §2

[15] = test system: lambsquarters; assay: Test C pre-/postemergence test; format: in vivo, Chenopodium album; conditions: Preemergence; for Lambsquarters plant response rating: 62 g ai/ha, scale 0 to 100
Procedure, shortened: as §2

[16] = test system: eastern black nightshade; assay: Test C pre-/postemergence test; format: in vivo, Solanum ptycanthum; conditions: Preemergence; for Nightshade plant response rating: 62 g ai/ha, scale 0 to 100; for Plant response rating, Nightshade: 31 g ai/ha, scale 0 to 100 (0 no effect, 100 complete control)
Procedure, shortened: as §2

[17] = test system: common ragweed; assay: Test C pre-/postemergence test; format: in vivo, Ambrosia elation; conditions: Preemergence; for Ragweed plant response rating: 62 g ai/ha, scale 0 to 100
Procedure, shortened: as §2

[18] = test system: common (oilseed) sunflower; assay: Test C pre-/postemergence test; format: in vivo, Helianthus annuus; conditions: Preemergence; for Sunflower plant response rating: 62 g ai/ha, scale 0 to 100; for Plant response rating, Sunflower: 31 g ai/ha, scale 0 to 100 (0 no effect, 100 complete control)
Procedure, shortened: as §2

[19] = test system: velvetleaf; assay: Test C pre-/postemergence test; format: in vivo, Abutilon theophrasti; conditions: Preemergence; for Velvetleaf plant response rating: 62 g ai/ha, scale 0 to 100; for Plant response rating, Velvetleaf: 31 g ai/ha, scale 0 to 100 (0 no effect, 100 complete control)
Procedure, shortened: as §2

[20] = Postemergence, 125 g ai/ha, 0 is no effect, 100 is complete control
[21] = Postemergence, 500 g ai/ha, 0 is no effect, 100 is complete control
[22] = Preemergence, 125 g ai/ha, 0 no effect, 100 complete control
[23] = 62 g ai/ha, Preemergence, scale 0 to 100
[24] = preemergence, 125 g ai/ha, scale 0 (no effect) to 100 (complete control)
[25] = 31 g ai/ha, scale 0 to 100 (0 no effect, 100 complete control)

SMILES: Cc1cc[n+]([O-])c(S(=O)(=O)C(Cl)c2c(C(F)(F)F)nn(C)c2Cl)c1 (racemic) [Compound 22]
- Foxtail, Giant plant response rating [1, 20]: 50
- Foxtail, Giant plant response rating [1, 21]: 80
- Foxtail, Giant plant response rating [1, 22]: 100
- Plant response rating, Foxtail, Giant ([1]; Preemergence, 500 g ai/ha): 100
- Morningglory plant response rating [2, 20]: 20
- Morningglory plant response rating [2, 21]: 40
- Morningglory plant response rating [2, 22]: 70
- Plant response rating, Morningglory ([2]; Preemergence, 500 g ai/ha): 90
- Pigweed plant response rating [3, 20]: 10
- Pigweed plant response rating [3, 21]: 50
- Pigweed plant response rating [3, 22]: 100
- Plant response rating, Pigweed ([3]; Preemergence, 500 g ai/ha): 100
- Wheat plant response rating [4, 20]: 0
- Wheat plant response rating [4, 21]: 40
- Wheat plant response rating [4, 22]: 20
- Plant response rating, Wheat ([4]; Preemergence, 500 g ai/ha): 50
- Blackgrass plant response rating [5, 23]: 95
- Plant response rating, Blackgrass ([5]; Preemergence): 55
- Plant response rating (0 to 100), Blackgrass ([5]; Preemergence): 98
- Blackgrass plant response rating [5, 24]: 95
- Bromegrass, Downy plant response rating [6, 23]: 0
- Plant response rating, Bromegrass, Downy ([6]; Preemergence): 0
- Plant response rating (0 to 100), Bromegrass, Downy ([6]; Preemergence): 0
- Bromegrass, Downy plant response rating [6, 24]: 0
- Wheat plant response rating [7]: 0
- Plant response rating, Wheat [7]: 0
- Oat, Wild plant response rating [8]: 45
- Plant response rating, Oat, Wild [8]: 0
- Galium plant response rating [9]: 100
- Plant response rating, Galium [9]: 95
- Plant response rating (0 to 100), Galium [9]: 100
- Surinam Grass plant response rating [10]: 60
- Plant response rating, Surinam Grass [10]: 10
- Cocklebur plant response rating [11, 23]: 0
- Plant response rating, Cocklebur ([11]; Preemergence): 0
- Plant response rating (0 to 100), Cocklebur ([11]; Preemergence): 0
- Cocklebur plant response rating [11, 24]: 0
- Cupgrass, Woolly plant response rating [12]: 100
- Plant response rating, Cupgrass, Woolly [12]: 60
- Foxtail, Giant plant response rating [13]: 80
- Plant response rating, Foxtail, Giant [13]: 80
- Plant response rating (0 to 100), Foxtail, Giant [13]: 100
- Kochia plant response rating [14]: 0
- Plant response rating, Kochia [14]: 0
- Lambsquarters plant response rating [15]: 100
- Plant response rating, Lambsquarters [15, 25]: 0
- Nightshade plant response rating [16]: 85
- Plant response rating, Nightshade [16]: 0
- Ragweed plant response rating [17]: 80
- Plant response rating, Ragweed [17, 25]: 0
- Sunflower plant response rating [18]: 0
- Plant response rating, Sunflower [18]: 0
- Velvetleaf plant response rating [19]: 0
- Plant response rating, Velvetleaf [19]: 0

SMILES: Cn1nc(C(F)(F)F)c(CS(=O)(=O)c2cccc[n+]2[O-])c1OCC(F)(F)F [Compound 29]
- Foxtail, Giant plant response rating [1, 20]: 80
- Foxtail, Giant plant response rating [1, 21]: 90
- Foxtail, Giant plant response rating [1, 22]: 100
- Plant response rating, Foxtail, Giant ([1]; Preemergence, 500 g ai/ha): 100
- Morningglory plant response rating [2, 20]: 30
- Morningglory plant response rating [2, 21]: 80
- Morningglory plant response rating [2, 22]: 70
- Plant response rating, Morningglory ([2]; Preemergence, 500 g ai/ha): 80
- Pigweed plant response rating [3, 20]: 70
- Pigweed plant response rating [3, 21]: 80
- Pigweed plant response rating [3, 22]: 100
- Plant response rating, Pigweed ([3]; Preemergence, 500 g ai/ha): 100
- Wheat plant response rating [4, 20]: 50
- Wheat plant response rating [4, 21]: 60
- Wheat plant response rating [4, 22]: 60
- Plant response rating, Wheat ([4]; Preemergence, 500 g ai/ha): 90
- Blackgrass plant response rating [5, 23]: 100
- Plant response rating, Blackgrass ([5]; Preemergence): 98
- Plant response rating (0 to 100), Blackgrass ([5]; Preemergence): 100
- Blackgrass plant response rating [5, 24]: 100
- Bromegrass, Downy plant response rating [6, 23]: 20
- Plant response rating, Bromegrass, Downy ([6]; Preemergence): 0
- Plant response rating (0 to 100), Bromegrass, Downy ([6]; Preemergence): 60
- Bromegrass, Downy plant response rating [6, 24]: 60
- Wheat plant response rating [7]: 30
- Plant response rating, Wheat [7]: 20
- Oat, Wild plant response rating [8]: 50
- Plant response rating, Oat, Wild [8]: 20
- Galium plant response rating [9]: 100
- Plant response rating, Galium [9]: 100
- Plant response rating (0 to 100), Galium [9]: 100
- Surinam Grass plant response rating [10]: 75
- Plant response rating, Surinam Grass [10]: 75
- Cocklebur plant response rating [11, 23]: 0
- Plant response rating, Cocklebur ([11]; Preemergence): 0
- Plant response rating (0 to 100), Cocklebur ([11]; Preemergence): 10
- Cocklebur plant response rating [11, 24]: 0
- Cupgrass, Woolly plant response rating [12]: 100
- Plant response rating, Cupgrass, Woolly [12]: 80
- Plant response rating (0 to 100), Cupgrass, Woolly ([12]; 250 g ai/ha): 100
- Foxtail, Giant plant response rating [13]: 100
- Plant response rating, Foxtail, Giant [13]: 100
- Plant response rating (0 to 100), Foxtail, Giant [13]: 100
- Kochia plant response rating [14]: 100
- Plant response rating, Kochia [14]: 100
- Lambsquarters plant response rating [15]: 0
- Nightshade plant response rating [16]: 98
- Plant response rating, Nightshade [16]: 75
- Ragweed plant response rating [17]: 30
- Sunflower plant response rating [18]: 60
- Plant response rating, Sunflower [18]: 0
- Velvetleaf plant response rating [19]: 100
- Plant response rating, Velvetleaf [19]: 30

— US20100298141A1, “SUBSTITUTED PYRIDINE N-OXIDE HERBICIDES” (E. I. DU PONT DE NEMOURS AND COMPANY, priority 2007, published 2010)
